From US6737438B2, “Substituted 1,2,4-trioxanes useful as antimalarial agents and a process for the preparation thereof” (Council of Scientific and Industrial Research, priority 2002, dated 2004) come the findings set out here.

For one assay, the system named is multidrug resistant strain of Plasmodium yoelii Nigeriensis. Description: Antimalarial activity against multidrug resistant P. yoelii in swiss mice. The assay is classed as in vivo. Particulars: Plasmodium yoelii, 96 h, oral, 96 mg/kg, 4 consecutive days (day 0-3), parasitaemia vs vehicle control, read-out: % Suppression on Day 4.
As to `C(=CC1COC2(CCCC2)OO1)c1ccc(-c2ccccc2)cc1` (centres unmarked) [Trioxane 7eb, 8-[([1,1′-biphenyl]-4yl)vinyl]-6,7,10-trioxaspiro (4,5) decane], the inhibition in vivo at 96 mg/kg came to 100%.
Same read-out and setting: as for `C(=CC1COC2(CCCCC2)OO1)c1ccc(-c2ccccc2)cc1` (centres unmarked) [Trioxane 7ec, 3-[([1,1′-biphenyl]-4yl)vinyl]-1,2,5-trioxaspiro (5,5) undecane], the figure is 100%.
The same measure, in the same setting: as for `C(=CC1COC2(CCCCCC2)OO1)c1ccc(-c2ccccc2)cc1` (centres unmarked) [Trioxane 7eh, 3[([1,1′-biphenyl]-4yl)vinyl]-1,2,5-trioxaspiro(5,6)dodecane], the figure is 100%.

Still in this assay, the particulars now being: Plasmodium yoelii, 672 h, oral, 96 mg/kg, observed till day 28, read-out: Cured/treated (converted).
`C(=CC1COC2(CCCC2)OO1)c1ccc(-c2ccccc2)cc1` (centres unmarked) [Trioxane 7eb, 8-[([1,1′-biphenyl]-4yl)vinyl]-6,7,10-trioxaspiro (4,5) decane]: the responders at 96 mg/kg was 0%.
On to `C(=CC1COC2(CCCCC2)OO1)c1ccc(-c2ccccc2)cc1` (centres unmarked) [Trioxane 7ec, 3-[([1,1′-biphenyl]-4yl)vinyl]-1,2,5-trioxaspiro (5,5) undecane], for which the responders at 96 mg/kg was 100%.
With `C(=CC1COC2(CCCCCC2)OO1)c1ccc(-c2ccccc2)cc1` (centres unmarked) [Trioxane 7eh, 3[([1,1′-biphenyl]-4yl)vinyl]-1,2,5-trioxaspiro(5,6)dodecane], the responders at 96 mg/kg was 80%.

The assay is the same for the next values; noted with them: Plasmodium yoelii, im, 96 h, i.m., 96 mg/kg, 4 consecutive days (day 0-3), parasitaemia vs vehicle control, read-out: % Suppression on Day 4.
In the case of `C(=CC1COC2(CCCC2)OO1)c1ccc(-c2ccccc2)cc1` (centres unmarked) [Trioxane 7eb, 8-[([1,1′-biphenyl]-4yl)vinyl]-6,7,10-trioxaspiro (4,5) decane], the inhibition in vivo at 96 mg/kg is 100%.
Still for that read-out and setting: to `C(=CC1COC2(CCCCC2)OO1)c1ccc(-c2ccccc2)cc1` (centres unmarked) [Trioxane 7ec, 3-[([1,1′-biphenyl]-4yl)vinyl]-1,2,5-trioxaspiro (5,5) undecane] belongs 100%; to `C(=CC1COC2(CCCCCC2)OO1)c1ccc(-c2ccccc2)cc1` (centres unmarked) [Trioxane 7eh, 3[([1,1′-biphenyl]-4yl)vinyl]-1,2,5-trioxaspiro(5,6)dodecane], 92%.

Staying with this assay, now noted: Plasmodium yoelii, im, 672 h, i.m., 96 mg/kg, observed till day 28, read-out: Cured/treated (converted).
In the case of `C(=CC1COC2(CCCC2)OO1)c1ccc(-c2ccccc2)cc1` (centres unmarked) [Trioxane 7eb, 8-[([1,1′-biphenyl]-4yl)vinyl]-6,7,10-trioxaspiro (4,5) decane], the responders at 96 mg/kg was 100%.
Consider `C(=CC1COC2(CCCCC2)OO1)c1ccc(-c2ccccc2)cc1` (centres unmarked) [Trioxane 7ec, 3-[([1,1′-biphenyl]-4yl)vinyl]-1,2,5-trioxaspiro (5,5) undecane], for which the responders at 96 mg/kg was 0%.
Regarding `C(=CC1COC2(CCCCCC2)OO1)c1ccc(-c2ccccc2)cc1` (centres unmarked) [Trioxane 7eh, 3[([1,1′-biphenyl]-4yl)vinyl]-1,2,5-trioxaspiro(5,6)dodecane], the responders at 96 mg/kg was 0%.

The same assay, now with this note: i.m., 96 mg/kg, 4 consecutive days (day 0-3), parasitaemia vs vehicle control.
Turning to “8-[(4′-cyclooctylphenyl)vinyl]-6,7,10-trioxaspiro(4,5)undecane [Trioxane 7de]”, the “% Suppression on Day 4” value came out at 57.4%.
On the same count and under the same terms, to `C=C(c1ccc(C2CCCCC2)cc1)C1COC2(CCC(c3ccccc3)CC2)OO1` (mixture of isomers) [Trioxane 7be] belongs 91.6%; to `C(=CC1COC2(CCCC2)OO1)c1ccc(C2CCCC2)cc1` (centres unmarked) [Trioxane 7aa, 8-[(4′-Cyclopentylphenyl)vinyl]-6,7,10-trioxaspiro-[4,5]-decane], 100%; to `C=C(c1ccc(C2CCCC2)cc1)C1COC2(CCC(c3ccccc3)CC2)OO1` (centres unmarked) [Trioxane 7ab], 77.56%.
The same measure, in the same setting: to `C(=CC1COC2(CCCCC2)OO1)c1ccc(C2CCCC2)cc1` (centres unmarked) [Trioxane 7ac, 3-[(4′-cyclopentylphenyl)vinyl]-1,2,5-trioxaspiro(5,5)undecane] belongs 84.94%; to `C(=CC1COC2(CCCCCC2)OO1)c1ccc(C2CCCC2)cc1` (centres unmarked) [Trioxane 7ad], 48%; to `C=C(c1ccc(C2CCCC2)cc1)C1COC2(CCC(C(C)(C)CC)CC2)OO1` (centres unmarked) [Trioxane 7ae], 43.58%.
Still for that read-out and setting: to `C(=CC1COC(c2ccccc2)OO1)c1ccc(C2CCCCC2)cc1` (centres unmarked) [Trioxane 7bc, 6-[(4′-cyclohexylphenyl)vinyl]-3-phenyl-1,2,4-trioxane] belongs 41.98%.

The assay is the same for the next values; noted with them: i.m., 96 mg/kg, observed till day 28.
For “8-[(4′-cyclooctylphenyl)vinyl]-6,7,10-trioxaspiro(4,5)undecane [Trioxane 7de]”, the Cured/treated was 0/5.
Still for that read-out and setting: to `C=C(c1ccc(C2CCCCC2)cc1)C1COC2(CCC(c3ccccc3)CC2)OO1` (mixture of isomers) [Trioxane 7be] belongs 0/5; to `C(=CC1COC2(CCCC2)OO1)c1ccc(C2CCCC2)cc1` (centres unmarked) [Trioxane 7aa, 8-[(4′-Cyclopentylphenyl)vinyl]-6,7,10-trioxaspiro-[4,5]-decane], 0/5; to `C=C(c1ccc(C2CCCC2)cc1)C1COC2(CCC(c3ccccc3)CC2)OO1` (centres unmarked) [Trioxane 7ab], 0/5.
On the same count and under the same terms, to `C(=CC1COC2(CCCCC2)OO1)c1ccc(C2CCCC2)cc1` (centres unmarked) [Trioxane 7ac, 3-[(4′-cyclopentylphenyl)vinyl]-1,2,5-trioxaspiro(5,5)undecane] belongs 0/5; to `C(=CC1COC2(CCCCCC2)OO1)c1ccc(C2CCCC2)cc1` (centres unmarked) [Trioxane 7ad], 0/5; to `C=C(c1ccc(C2CCCC2)cc1)C1COC2(CCC(C(C)(C)CC)CC2)OO1` (centres unmarked) [Trioxane 7ae], 0/5.
Turning to `C(=CC1COC(c2ccccc2)OO1)c1ccc(C2CCCCC2)cc1` (centres unmarked) [Trioxane 7bc, 6-[(4′-cyclohexylphenyl)vinyl]-3-phenyl-1,2,4-trioxane], the Cured/treated is 0/5.

The assay is the same for the next values; noted with them: oral, 48 mg/kg, 4 consecutive days (day 0-3), parasitaemia vs vehicle control.
Regarding `C=C(c1ccc(C2CCCCC2)cc1)C1COC2(CCC(c3ccccc3)CC2)OO1` (mixture of isomers) [Trioxane 7be], the “% Suppression on Day 4” value is on record as 100%.

The same assay, now with this note: oral, 48 mg/kg, observed till day 28.
`C=C(c1ccc(C2CCCCC2)cc1)C1COC2(CCC(c3ccccc3)CC2)OO1` (mixture of isomers) [Trioxane 7be]: the Cured/treated is on record as 5/5.

Staying with this assay, now noted: oral, 96 mg/kg, 4 consecutive days (day 0-3), parasitaemia vs vehicle control.
Regarding “8-[(4′-cyclooctylphenyl)vinyl]-6,7,10-trioxaspiro(4,5)undecane [Trioxane 7de]”, the “% Suppression on Day 4” value came out at 100%.
The same measure, in the same setting: to `C(=CC1COC2(CCCC2)OO1)c1ccc(C2CCCC2)cc1` (centres unmarked) [Trioxane 7aa, 8-[(4′-Cyclopentylphenyl)vinyl]-6,7,10-trioxaspiro-[4,5]-decane] belongs 100%; to `C=C(c1ccc(C2CCCC2)cc1)C1COC2(CCC(c3ccccc3)CC2)OO1` (centres unmarked) [Trioxane 7ab], 100%.
For `C(=CC1COC2(CCCCC2)OO1)c1ccc(C2CCCC2)cc1` (centres unmarked) [Trioxane 7ac, 3-[(4′-cyclopentylphenyl)vinyl]-1,2,5-trioxaspiro(5,5)undecane], the “% Suppression on Day 4” value is on record as 100%.
The same measure, in the same setting: to `C(=CC1COC2(CCCCCC2)OO1)c1ccc(C2CCCC2)cc1` (centres unmarked) [Trioxane 7ad] belongs 88.68%; to `C=C(c1ccc(C2CCCC2)cc1)C1COC2(CCC(C(C)(C)CC)CC2)OO1` (centres unmarked) [Trioxane 7ae], 100%.
Still for that read-out and setting: as for `C(=CC1COC(c2ccccc2)OO1)c1ccc(C2CCCCC2)cc1` (centres unmarked) [Trioxane 7bc, 6-[(4′-cyclohexylphenyl)vinyl]-3-phenyl-1,2,4-trioxane], the figure is 95.64%.

Staying with this assay, now noted: oral, 96 mg/kg, observed till day 28.
For the compound “8-[(4′-cyclooctylphenyl)vinyl]-6,7,10-trioxaspiro(4,5)undecane [Trioxane 7de]”, the Cured/treated was 3/5.
For `C(=CC1COC2(CCCC2)OO1)c1ccc(C2CCCC2)cc1` (centres unmarked) [Trioxane 7aa, 8-[(4′-Cyclopentylphenyl)vinyl]-6,7,10-trioxaspiro-[4,5]-decane], the Cured/treated was 5/5.
On the same count and under the same terms, as for `C=C(c1ccc(C2CCCC2)cc1)C1COC2(CCC(c3ccccc3)CC2)OO1` (centres unmarked) [Trioxane 7ab], the figure is 0/5; as for `C(=CC1COC2(CCCCC2)OO1)c1ccc(C2CCCC2)cc1` (centres unmarked) [Trioxane 7ac, 3-[(4′-cyclopentylphenyl)vinyl]-1,2,5-trioxaspiro(5,5)undecane], 5/5; as for `C(=CC1COC2(CCCCCC2)OO1)c1ccc(C2CCCC2)cc1` (centres unmarked) [Trioxane 7ad], 0/5.
On the same count and under the same terms, as for `C=C(c1ccc(C2CCCC2)cc1)C1COC2(CCC(C(C)(C)CC)CC2)OO1` (centres unmarked) [Trioxane 7ae], the figure is 0/5.
As for `C(=CC1COC(c2ccccc2)OO1)c1ccc(C2CCCCC2)cc1` (centres unmarked) [Trioxane 7bc, 6-[(4′-cyclohexylphenyl)vinyl]-3-phenyl-1,2,4-trioxane], the Cured/treated is 0/5.
